# Laboratory results: patent US20230057033A1, “FLUOROGENIC BETA-LACTAMASE SUBSTRATE AND ASSOCIATED DETECTION METHOD” (MOLSID, priority 2019, published 2023)
# Test system: β-lactamase
# Test: Detection of fluorescence of compound 15 with β-lactamase (microwell plate, plate fluorimeter)
# Assay type: biochemical
# Settings: 75 μ, 37° C., 10 U.mL^−1, fluorescence measured over time, FIG. 1
# Method: The fluorescence of compound 15 was evaluated with and without a β-lactamase. The test was performed by incubation/chemical reaction in a microwell plate (75 μ, 37° C., 10 U.mL^−1). The fluorescence was measured over time by a plate fluorimeter.
smiles,measurement,value
O=C(Cc1cccs1)N[C@@H]1C(=O)N2C(C(=O)O)=C(COC(=O)NCC3CCCCN3C(=O)Oc3ccc(Cl)cc3-c3nc4ccc(Cl)cc4c(=O)[nH]3)CS[C@H]12 (stereo partly shown) [Compound 15],"fluorescence generated in the presence of β-lactamase (hydrolysis, fragmentation and release of ELF 97)",intense fluorescence
